Details: Liquid, Vibrating tube method

CCCCC(=O)OCC(COC(=O)CCCC)(COC(=O)CCCC)COC(=O)CCCC [pentaerythritol tetrapentanoate]
Details | mass density [kg/m3]
303.16 K, 794.63 kPa | 1011.4
303.16 K, 4758.7 kPa | 1013.9
303.16 K, 10737 kPa | 1017.8
303.16 K, 10776 kPa | 1017.7
303.16 K, 19666 kPa | 1023
303.16 K, 25722 kPa | 1026.7
303.16 K, 33332 kPa | 1030.7
303.16 K, 33572 kPa | 1030.8
303.16 K, 34311 kPa | 1031.2
303.16 K, 34317 kPa | 1031.3
303.16 K, 34322 kPa | 1031.4
303.16 K, 34329 kPa | 1031.2
303.16 K, 34349 kPa | 1031.2
323.14 K, 736.7 kPa | 995.1
323.14 K, 775.7 kPa | 995.1
323.14 K, 800.8 kPa | 995.2
323.14 K, 1023.7 kPa | 995.3
323.14 K, 1214.2 kPa | 995.6
323.14 K, 1242.9 kPa | 995.4
323.14 K, 1267.4 kPa | 995.5
323.14 K, 1292.7 kPa | 995.4
323.14 K, 1352.1 kPa | 995.6
323.14 K, 1554.7 kPa | 995.8
323.14 K, 1591.2 kPa | 995.7
323.14 K, 1625.4 kPa | 995.6
323.14 K, 1652.3 kPa | 995.8
323.14 K, 1677.1 kPa | 995.8
323.14 K, 1847.7 kPa | 995.8
323.14 K, 1899.2 kPa | 995.8
323.14 K, 1926.8 kPa | 996
323.14 K, 1959.1 kPa | 996
323.14 K, 1986.5 kPa | 996.1
323.14 K, 2181.7 kPa | 996.1
323.14 K, 2215.2 kPa | 996.1
323.14 K, 2249 kPa | 996.2
323.14 K, 2284.1 kPa | 996.3
323.14 K, 2935.8 kPa | 996.6
323.14 K, 2965.1 kPa | 996.7
323.14 K, 3225.9 kPa | 996.8
323.14 K, 3237 kPa | 996.9
323.14 K, 3248.4 kPa | 996.9
323.14 K, 3385 kPa | 996.9
323.14 K, 7926.5 kPa | 1000.3
323.14 K, 7971.9 kPa | 1000.2
323.14 K, 9459.5 kPa | 1001.1
323.14 K, 9766.4 kPa | 1001.5
323.14 K, 9799.5 kPa | 1001.4
323.14 K, 9832.9 kPa | 1001.5
323.14 K, 9906.9 kPa | 1001.6
323.14 K, 9941.6 kPa | 1001.6
323.14 K, 10052 kPa | 1001.6
323.14 K, 10094 kPa | 1001.7
323.14 K, 10244 kPa | 1001.9
323.14 K, 11507 kPa | 1002.6
323.14 K, 12708 kPa | 1003.4
323.14 K, 13903 kPa | 1004.3
323.14 K, 14014 kPa | 1004.2
323.14 K, 14206 kPa | 1004.4
323.14 K, 14241 kPa | 1004.3
323.14 K, 19359 kPa | 1007.7
323.14 K, 19418 kPa | 1007.7
323.14 K, 19454 kPa | 1007.7
323.14 K, 19485 kPa | 1007.9
323.14 K, 28758 kPa | 1013.5
323.14 K, 28848 kPa | 1013.6
323.14 K, 28889 kPa | 1013.5
323.14 K, 28930 kPa | 1013.6
323.14 K, 29171 kPa | 1013.8
323.14 K, 29205 kPa | 1013.9
323.14 K, 29234 kPa | 1013.8
323.14 K, 29268 kPa | 1014
323.14 K, 29296 kPa | 1013.9
323.15 K, 106.09 kPa | 994.8
323.15 K, 106.1 kPa | 994.7
323.15 K, 106.26 kPa | 994.6
323.15 K, 106.44 kPa | 994.7
323.15 K, 107.13 kPa | 994.6
323.15 K, 108 kPa | 994.6
323.15 K, 108.53 kPa | 994.7
323.15 K, 110.43 kPa | 994.6
323.15 K, 112.87 kPa | 994.7
323.15 K, 115.82 kPa | 994.7
323.15 K, 118.77 kPa | 994.7
323.15 K, 121.05 kPa | 994.6
323.15 K, 124.52 kPa | 994.7
323.15 K, 129.04 kPa | 994.6
323.15 K, 133.91 kPa | 994.8
323.15 K, 140.34 kPa | 994.7
323.15 K, 147.99 kPa | 994.8
323.15 K, 159.99 kPa | 994.7
323.15 K, 173.53 kPa | 994.6
323.15 K, 190.4 kPa | 994.6
323.15 K, 218.21 kPa | 994.8
323.15 K, 249.16 kPa | 994.8
323.15 K, 296.4 kPa | 994.7
323.15 K, 338.3 kPa | 994.8
323.15 K, 358.5 kPa | 994.8
323.15 K, 373.8 kPa | 994.9
323.15 K, 387.5 kPa | 994.7
323.15 K, 401.6 kPa | 994.8
323.15 K, 416.9 kPa | 994.9
323.15 K, 429 kPa | 995
323.15 K, 441.9 kPa | 995
323.15 K, 455.3 kPa | 995
323.15 K, 472.5 kPa | 994.9
323.15 K, 488.1 kPa | 994.9
323.15 K, 504.6 kPa | 995
323.15 K, 525.8 kPa | 995
323.15 K, 543.7 kPa | 995
323.15 K, 564 kPa | 995
323.15 K, 582.3 kPa | 995
323.15 K, 601.7 kPa | 995
323.15 K, 627.6 kPa | 995.1
323.15 K, 645.4 kPa | 995.1
323.15 K, 665.2 kPa | 995.1
323.15 K, 681.1 kPa | 995.1
323.15 K, 697.1 kPa | 995
323.15 K, 718 kPa | 995.2
323.15 K, 755.5 kPa | 995
323.15 K, 823.3 kPa | 995.1
323.15 K, 846.7 kPa | 995.1
323.15 K, 871.2 kPa | 995.4
323.15 K, 903.5 kPa | 995.2
323.15 K, 930.1 kPa | 995.3
323.15 K, 958.1 kPa | 995.3
323.15 K, 984.8 kPa | 995.4
323.15 K, 1006.3 kPa | 995.3
323.15 K, 1041.8 kPa | 995.4
323.15 K, 1060 kPa | 995.3
323.15 K, 1082.2 kPa | 995.4
323.15 K, 1101.7 kPa | 995.3
323.15 K, 1121.7 kPa | 995.4
323.15 K, 1146.9 kPa | 995.5
323.15 K, 1168.2 kPa | 995.4
323.15 K, 1191 kPa | 995.4
323.15 K, 1319.1 kPa | 995.2
323.15 K, 1380.2 kPa | 995.5
323.15 K, 1416.2 kPa | 995.6
323.15 K, 1447.4 kPa | 995.6
323.15 K, 1479.7 kPa | 995.8
323.15 K, 1512.7 kPa | 995.6
323.15 K, 1698.1 kPa | 995.8
323.15 K, 1720.3 kPa | 995.8
323.15 K, 1747.2 kPa | 995.8
323.15 K, 1770.3 kPa | 995.8
323.15 K, 1793.7 kPa | 995.8
323.15 K, 1822.9 kPa | 995.9
323.15 K, 1873.2 kPa | 995.9
323.15 K, 2015.2 kPa | 996.1
323.15 K, 2044.7 kPa | 996.1
323.15 K, 2080.6 kPa | 996
323.15 K, 2111.5 kPa | 996.1
323.15 K, 2143.5 kPa | 996.3
323.15 K, 2327.6 kPa | 996.2
323.15 K, 2364.9 kPa | 996.1
323.15 K, 2402.4 kPa | 996.3
323.15 K, 2448.3 kPa | 996.3
323.15 K, 2487.7 kPa | 996.4
323.15 K, 2528.3 kPa | 996.4
323.15 K, 2578.1 kPa | 996.3
